# Test results published in publication PMC11054274, “Dual Antitubercular and Antileishmanial Profiles of Quinoxaline Di-N-Oxides Containing an Amino Acidic Side Chain” (Pharmaceuticals, 2024).
# Where two headings read alike, the source gives them in different places.
# Assays:
# [1] = test system: Mycobacterium tuberculosis H37Rv; test: In vitro activity against Mycobacterium tuberculosis H37Rv, microdilution AlamarBlue broth assay (BacTiter-Glo alternative read-out); format: cell-based; conditions: for IC90: read-out: IC90, antibacterial activity against Mtb H37Rv
# [2] = test system: Leishmania amazonensis promastigotes; test: Promastigote susceptibility assay (resazurin), L. amazonensis; format: cell-based; conditions: for IC50: Table S2, 48 h, read-out: L. amazonensis IC50 (promastigote); for IC50 / activity against L. amazonensis (in words): promastigotes; for L. amazonensis promastigote selectivity index (SI): SI = CC50 (J774 macrophages)/IC50
# Method: (§1) The following species of Leishmania were used: L. donovani (MHOM/IN/80/DD8), which was purchased (ATCC, Manassas, VA, USA), and L. amazonensis (MHOM/Br/79/Maria), which was kindly provided by Prof. Alfredo Toraño (Instituto de Salud Carlos III, Madrid, Spain). Promastigotes were cultured in Schneider’s Insect Medium supplemented with 10% heat-inactivated Fetal Bovine Serum (FBS) (SIGMA-Merck, Madrid, Spain) and 1000 U/L of penicillin plus 100 mg/L of streptomycin in 25 mL culture flasks at 26 °C.
# (§2) The activity of the compounds on Leishmania promastigotes was performed according to the method previously reported by us. Briefly, promastigotes (2.5 × 10^5 parasites/well) were cultured in 96-well plastic plates. The compounds were dissolved in dimethylsulfoxide (DMSO). Serial dilutions at 1:2 of the test compounds in fresh culture medium were performed (100, 50, 25, 12.5, 6.25, 3.12, 1.56 and 0.78 µg/mL) in a final volume of 200 µL; the solutions were then added to the parasite suspension. After an incubation period of 48 h at 26 °C, a volume of 20 μL of 2.5 mM resazurin solution in PBS was added and the plates were incubated for 3 h under the same conditions. Finally, the Relative Fluorescence Unit (RFU) (535ex–590em nm wavelength) was determined in a fluorimeter (Infinite 200 Tecan i-Control). Growth inhibition (%) was calculated by 100—[(RFU treated wells—RFU signal-to-noise)/(RFU untreated—RFU signal-to-noise) × 100]. All tests were carried out in triplicate and the IC50 was calculated by probit analysis using SPSS 17.0 Statistics Software. Miltefosine (Sigma-Merck, Madrid, Spain) was used as the reference drug.
# [3] = test system: Leishmania donovani promastigotes; test: Promastigote susceptibility assay (resazurin), L. donovani; format: cell-based; conditions: for IC50: Table S2, 48 h; for IC50 / activity against L. donovani (in words): promastigotes; for L. donovani promastigote selectivity index (SI): SI = CC50 (J774 macrophages)/IC50
# Method: as §1, §2
# J774 murine macrophages = test: Cytotoxicity assay on macrophages (resazurin); format: cell-based; conditions: for CC50: 24 h exposure, read-out: Toxicity against J774 macrophages CC50
# Method: (§3) J774 murine macrophages were grown in RPMI-1640 medium (Sigma) supplemented with 10% heat-inactivated FBS (30 min at 56 °C) (SIGMA-Merck), penicillin G (100 U/mL) and streptomycin (100 µg/mL). For the experiments, cells in the pre-confluence phase were harvested with trypsin. Cell cultures were maintained at 37 °C in a humidified environment with 5% CO2.
# (§4) Cell viability was evaluated using a modification with resazurin of the colorimetric method described previously. J774 macrophages were seeded (5 × 10^4 cells/well) in 96-well flat-bottom microplates with 100 µL of RPMI-1640 medium. The cells were allowed to adhere for 4 h at 37 °C in 5% CO2, then different concentrations of the test compounds in 100 µL of the medium were added and exposed for 24 h. Growth controls were also included. To evaluate cell viability, 20 µL of a 2.5 mM resazurin solution was added and the plates were returned to the incubator for another 3 h. The reduction in resazurin was determined by measuring the fluorescence intensity (excitation wavelength, 535 nm; emission wavelength, 590 nm). Each concentration was assayed three times. The medium and controls were used in each test as blanks. The cytotoxic effect of the compounds was defined as the 50% reduction in cell viability of treated culture cells with respect to the untreated culture (CC50).
# [4] = Cytotoxicity assay on macrophages (resazurin); format: cell-based, murine; conditions: mouse, J774 macrophages, Table S2; 24 h exposure; read-out: Toxicity against J774 macrophages CC50
# Method: as §3, §4
# [5] = test system: Leishmania amazonensis amastigotes; test: Intracellular amastigote assay in J774 macrophages, L. amazonensis; format: cell-based; conditions: for IC50: Table S3, intracellular amastigotes, 48 h, read-out: L. amazonensis IC50 (amastigote)
# Method: We performed an intracellular amastigote assay on L. amazonensis and L. donovani according to a fluorometric method reported by us. To carry out the in vitro macrophage infections, 5 × 10^4 cells were cultured in RPMI-1640 medium and then were infected with 5 × 10^5 promastigotes. In the L. donovani assays, the plates were incubated for 48 h at 37 °C, while in the L. amazonensis assays, they were incubated at 33 °C for the first 24 h and then the temperature was increased to 37 °C for the next 24 h. After, the culture medium was removed and the cells were washed with buffered RPMI-HEPES at pH 7.4 several times in order to eliminate the non-internalized promastigotes. A total of 100 µL of fresh medium tempered at 37 °C was added to the infected cells, which then were exposed to 100 µL of the test compounds in RPMI-1640 at different concentrations (100, 50, 25, 12.5, 6.25, 3.12, 1.56 and 0.78 µg/mL in a final volume of 200 µL) for 48 h at 37 °C. The culture medium was removed by centrifugation at 3500 rpm for 5 min (Centrifuge 5403 Eppendorf) and a lysis solution (0.02% sodium dodecyl sulfate in RPMI-HEPES) was added. After 20 min, the treated cells were harvested (centrifugation at 3500 rpm for 5 min at 4 °C) and the supernatants were replaced by 200 μL of fresh Schneider’s culture medium. The plates were then incubated at 26 °C for another 3 days to allow for the transformation of viable amastigotes into promastigotes and proliferation. Afterwards, 20 μL/well of 2.5 mM resazurin was added and incubated for another 3 h. Finally, URF was measured and IC50 was estimated as described above. All tests were carried out in triplicate. Miltefosine was used as the reference drug.
# [6] = Mycobacterium tuberculosis, Table S1, Mtb H37Rv, read-out: IC50, antibacterial activity against Mtb H37Rv
# [7] = Mycobacterium tuberculosis, Table S1, Mtb H37Rv
# [8] = Table S1, Mtb H37Rv, read-out: IC50, antibacterial activity against Mtb H37Rv
# [9] = Mycobacterium tuberculosis, H37Rv strain, read-out: IC50 against Mycobacterium tuberculosis H37Rv
Compound,"IC50 [1, 6] [µM]","IC90 [1, 7] [µM]",IC50 [2] [µM],"IC50 [1, 8] [µM]","IC90 ([1]; Table S1, Mtb H37Rv) [µM]",IC50 [3] [µM],CC50 (J774 murine macrophages; Table S2) [µM],IC50 ([2]; Leishmania amazonensis) [µM],L. amazonensis promastigote selectivity index (SI) [2],IC50 ([3]; Leishmania donovani) [µM],CC50 at 24 h [4] [µM],also measured
"CC[C@@H](CO)NCCN[C@@H](CC)CO [Ethambutol, reference compound]",1.56,32.8,,,,,,,,,,
"NCC[C@H](O)C(=O)N[C@@H]1C[C@H](N)[C@@H](O[C@H]2O[C@H](CN)[C@@H](O)[C@H](O)[C@H]2O)[C@H](O)[C@H]1O[C@H]1O[C@H](CO)[C@@H](O)[C@H](N)[C@H]1O [Amikacin, reference compound]",0.07,0.08,,,,,,,,,,
"COc1ccc2c(c1)[n+]([O-])c(-c1ccccc1)c(C(=O)NCC(=O)OCc1ccccc1)[n+]2[O-] [Compound 4f, N-(6-Methoxy-1,4-dioxide-3-(phenyl)quinoxaline-2-carbonyl)glycine benzyl ester]",,,> 261,21.9,47.9,> 261,,,,,,activity against L. amazonensis (in words) [2]: inactive; activity against L. donovani (in words) [3]: inactive
"NNC(=O)c1ccncc1 [Isoniazid, reference compound]",0.18,0.29,,,,,,,,,,
"N-(1,4-Dioxide-3-((4,5-dimethoxy-2-nitro-phenyl)quinoxaline-2-carbonyl)glycine benzyl ester [Compound 4e]",,,25.1 ± 0.56,25.2,47.9,34 ± 5.2,18.5 ± 3.4,,,,,toxicity to macrophages (in words) (J774 murine macrophages): highly toxic to macrophages
COC(=O)CNC(=O)c1c(-c2ccc(C(F)(F)F)cc2)[n+]([O-])c2ccccc2[n+]1[O-] [Compound 4c],,,> 238,13.2,25.9,> 238,6960,,,,,activity against L. amazonensis (in words) [2]: inactive; activity against L. donovani (in words) [3]: inactive
"COc1ccc2c(c1)[n+]([O-])c(-c1ccc(C(F)(F)F)cc1)c(C(=O)NCC(=O)O)[n+]2[O-] [Compound 5h, 2-((Carboxymethyl)carbamoyl)-6-methoxy-3-(4-(trifluoromethyl)phenyl)quinoxaline 1,4-dioxide]",16.4,22,,,,,,> 229,> 8,> 229,1830,
"O=C(O)CNC(=O)c1c(-c2ccc(F)cc2)[n+]([O-])c2ccccc2[n+]1[O-] [Compound 5d, 2-((Carboxymethyl)carbamoyl)-3-(4-fluorophenyl)quinoxaline 1,4-dioxide]",,,,,,,,> 280,> 3.0,> 280,840,
"COC(=O)CNC(=O)c1c(-c2ccccc2)[n+]([O-])c2cc(C(F)(F)F)ccc2[n+]1[O-] [Compound 4n, N-(1,4-Dioxide-6-trifluoromethyl-3-phenylquinoxaline-2-carbonyl)glycine methyl ester]",,,97.3 ± 4.3,11.9,27.9,43.5 ± 1.1,191 ± 29.3,,,,,
"CCc1nc(N)nc(N)c1-c1ccc(Cl)cc1 [Pyrimethamine, reference compound]",,75,,,,,,,,,,"IC50 [1, 9]: 37.4 µM"
"COC(=O)CNC(=O)c1c(-c2ccc(C(F)(F)F)cc2)[n+]([O-])c2cc(C)ccc2[n+]1[O-] [Compound 4l, N-(6-Methyl-1,4-dioxide-3-(4-trifluoromethylphenyl)quinoxaline-2-carbonyl)glycine methyl ester]",,,> 230,7.2,15.5,,1380,,,,,activity against L. amazonensis (in words) [2]: inactive; activity against L. donovani (in words) [3]: inactive
"COC(=O)CNC(=O)c1c(-c2ccc(C)cc2)[n+]([O-])c2cc(OC)ccc2[n+]1[O-] [Compound 4j, N-(6-Methoxy-1,4-dioxide-3-(4-methylphenyl)quinoxaline-2-carbonyl)glycine methyl ester]",12.9,24.6,,,,,,111 ± 4,2.9,13.8 ± 9.5,318.6 ± 0.84,L. donovani promastigote selectivity index (SI) [3]: 23.2
"COC(=O)CNC(=O)c1c(-c2ccccc2)[n+]([O-])c2ccccc2[n+]1[O-] [Compound 4a, N-(1,4-Dioxide-3-phenylquinoxaline-2-carbonyl)glycine methyl ester]",,,171 ± 8.5,26.3,55.5,103 ± 9.8,850,,,,,IC50 [5]: 12.6 ± 0.3 µM; CC50 (J774 murine macrophages; Table S3): 850 µM
"N[C@@H]1CON=C1O [Cycloserine, reference compound]",,13.5,,,,,,,,,,"IC50 [1, 9]: 12.5 µM"
"Cc1ccc2c(c1)[n+]([O-])c(-c1ccc(F)cc1)c(C(=O)NCC(=O)O)[n+]2[O-] [Compound 5m, 2-((Carboxymethyl)carbamoyl)-3-(4-fluorophenyl)-6-methylquinoxaline 1,4-dioxide]",17.2,35.1,,,,,,> 270,> 30,> 270,8090,
COC(=O)CNC(=O)c1c(-c2ccc(OC)cc2)[n+]([O-])c2ccccc2[n+]1[O-] [Compound 4b],,,157 ± 7.8,40.6,69.8,261 ± 7.8,1570,,,,,
"COc1ccc2c(c1)[n+]([O-])c(-c1ccc(C)cc1)c(C(=O)O)[n+]2[O-] [Compound 6, 2-Carboxy-6-methoxy-3-(4-tolyl)quinoxaline 1,4-dioxide]",45,76.4,,,,,,20.5 ± 2.5,20.7,6.2 ± 0.2,424,"IC50 ([5]; Leishmania amazonensis, J774): 31.9 ± 13.2 µM; L. amazonensis amastigote selectivity index (SI) ([5]; SI = CC50 (J774 macrophages)/IC50): 13.3; L. donovani promastigote selectivity index (SI) [3]: 68.4"
"COc1ccc2c(c1)[n+]([O-])c(-c1ccccc1)c(C(=O)NCC(=O)O)[n+]2[O-] [Compound 5f, 2-((Carboxymethyl)carbamoyl)-6-methoxy-3-phenylquinoxaline 1,4-dioxide]",4.28,9.86,,,,,,> 271,> 30,> 271,8130,
